Biological target: T1, human GPR119 (hGPR119) (Homo sapiens, UniProt Q8TDV5)
T1 construct: expressed in transfected cells
T1 sequence (Q8TDV5 1-335): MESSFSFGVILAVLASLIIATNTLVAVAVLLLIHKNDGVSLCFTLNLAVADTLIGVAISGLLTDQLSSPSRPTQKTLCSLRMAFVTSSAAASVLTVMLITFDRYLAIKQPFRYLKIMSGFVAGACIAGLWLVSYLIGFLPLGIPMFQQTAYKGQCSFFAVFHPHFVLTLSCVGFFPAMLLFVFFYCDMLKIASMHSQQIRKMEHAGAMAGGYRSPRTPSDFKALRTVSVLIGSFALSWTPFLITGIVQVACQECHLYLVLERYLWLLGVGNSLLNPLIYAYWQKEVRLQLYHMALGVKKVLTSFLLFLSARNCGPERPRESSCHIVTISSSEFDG
Test: cAMP accumulation assay (cAMP Gs dynamic HTRF kit)
Type: cell-based
Settings: CHO-K1 cells stably expressing hGPR119, 4-parameter fit; for Emax: 1 h, % activity normalized to Max/Min controls; for EC50: cAMP accumulation
How it was run: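 CHO-K1 cells stably expressing hGPR119, used as assay-ready frozen stocks at ~10,000 cells/well, exposed to compound dose-response in stimulation buffer with Tween 80 for 60 min at 37° C. cAMP read by HTRF (665/620 nm ratio), normalised to Max/Min controls; EC50 and Max activity from 4-parameter fit.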

| Emax [%] | EC50 [nM] | Compound |
| --- | --- | --- |
| 100 to 130 | 100 to 1000 | O=C(Cc1c(F)cc(OCCC2CC3(CCN(c4ncc(Cl)cn4)CC3)C2)cc1F)N1CC(CNC[C@H](O)[C@@H](O)[C@H](O)[C@H](O)CO)C1 [Example 115, 2-[4-[2-[7-(5-chloropyrimidin-2-yl)-7-azaspiro[3.5]nonan-2-yl]ethoxy]-2,6-difluoro-phenyl]-1-[3-[[[(2S,3R,4R,5R)-2,3,4,5,6-pentahydroxyhexyl]amino]methyl]azetidin-1-yl]ethanone] |
| ≥ 130 | ≤ 100 | O=C(Cc1c(F)cc(OCCCC2CCN(c3ncc(Cl)cn3)CC2)cc1F)N1CC[C@@H](CNC(CO)(CO)CO)C1 [Example 149, 2-[4-[3-[1-(5-chloropyrimidin-2-yl)-4-piperidyl]propoxy]-2,6-difluoro-phenyl]-1-[(3S)-3-[[[2-hydroxy-1,1-bis(hydroxymethyl)ethyl]amino]methyl]pyrrolidin-1-yl]ethanone] |
| 100 to 130 | ≤ 100 | O=C(Cc1ccc(OCCCC2CCN(c3ncc(Cl)cn3)CC2)cc1F)N1CC(CCNC[C@H](O)[C@H](O)[C@H](O)CO)C1 [Example 164, 2-[4-[3-[1-(5-chloropyrimidin-2-yl)-4-piperidyl]propoxy]-2-fluoro-phenyl]-1-[3-[2-[[(2S,3S,4R)-2,3,4,5-tetrahydroxypentyl]amino]ethyl]azetidin-1-yl]ethanone] |
| ≥ 130 | ≤ 100 | COCc1cnc(N2CCC(CCCOc3cc(F)c(CC(=O)N4CC[C@@H](CNCC(CO)(CO)CO)C4)c(F)c3)CC2)nc1 [Example 160, 2-[2,6-difluoro-4-[3-[1-[5-(methoxymethyl)pyrimidin-2-yl]-4-piperidyl]propoxy]phenyl]-1-[(3S)-3-[[[3-hydroxy-2,2-bis(hydroxymethyl)propyl]amino]methyl]pyrrolidin-1-yl]ethanone] |
| 100 to 130 | ≤ 100 | O=C(Cc1ccc(OCCCC2CCN(c3ncc(Cl)cn3)CC2)cc1F)N1CC(CN2C[C@@H](O)[C@@H](O)[C@@H](O)C2)C1 [Example 50, 2-[4-[3-[1-(5-chloropyrimidin-2-yl)-4-piperidyl]propoxy]-2-fluoro-phenyl]-1-[3-[[rac-(3R,5S)-3,4,5-trihydroxy-1-piperidyl]methyl]azetidin-1-yl]ethanone] |
| ≥ 130 | 100 to 1000 | O=C(Cc1ccc(OCCCC2CCN(c3ncc(Cl)cn3)CC2)cc1F)NCCCC(=O)NC(CO)CO [Example 21, 4-[[2-[4-[3-[1-(5-chloropyrimidin-2-yl)-4-piperidyl]propoxy]-2-fluoro-phenyl]acetyl]amino]-N-[2-hydroxy-1-(hydroxymethyl)ethyl]butanamide] |
| 100 to 130 | 100 to 1000 | CCCc1cnc(N2CCC(CCCOc3ccc(CC(=O)N4CC(CNCCNC(=O)NC(CO)(CO)CO)C4)c(F)c3)CC2)nc1 [Example 73, 1-(1,3-dihydroxy-2-(hydroxymethyl)propan-2-yl)-3-(2-(((1-(2-(2-fluoro-4-(3-(1-(5-propylpyrimidin-2-yl)piperidin-4-yl)propoxy)phenyl)acetyl)azetidin-3-yl)methyl)amino)ethyl)urea] |
| 100 to 130 | ≤ 100 | O=C(Cc1ccc(OCCCC2CCN(c3ncc(Cl)cn3)CC2)cc1F)N1CC(CNCC(CO)CO)C1 [Example 45, 2-[4-[3-[1-(5-chloropyrimidin-2-yl)-4-piperidyl]propoxy]-2-fluoro-phenyl]-1-[3-[[[3-hydroxy-2-(hydroxymethyl)propyl]amino]methyl]azetidin-1-yl]ethanone] |
| 100 to 130 | ≤ 100 | O=C(Cc1ccc(OCCCC2CCN(c3ncc(Cl)cn3)CC2)cc1F)N1CC[C@H](CNCC(O)(CO)CO)C1 [Example 101, 2-[4-[3-[1-(5-chloropyrimidin-2-yl)-4-piperidyl]propoxy]-2-fluoro-phenyl]-1-[(3R)-3-[[[2,3-dihydroxy-2-(hydroxymethyl)propyl]amino]methyl]pyrrolidin-1-yl]ethanone] |
| 100 to 130 |  | COCc1cnc(N2CCC(CCCOc3ccc(CC(=O)N4CC(CNCCNC(=O)NC(CO)(CO)CO)C4)c(F)c3)CC2)nc1 [Example 81, 1-[2-[[1-[2-[2-fluoro-4-[3-[1-[5-(methoxymethyl)pyrimidin-2-yl]-4-piperidyl]propoxy]phenyl]acetyl]azetidin-3-yl]methylamino]ethyl]-3-[2-hydroxy-1,1-bis(hydroxymethyl)ethyl]urea] |
| 100 to 130 | 100 to 1000 | O=C(Cc1ccc(OCCCC2CC23CCN(c2ncc(Cl)cn2)CC3)cc1F)N1CC(CNC[C@H](O)[C@@H](O)[C@H](O)[C@H](O)CO)C1 (stereo partly drawn) [Example 142, 2-[4-[3-[6-(5-chloropyrimidin-2-yl)-6-azaspiro[2.5]octan-2-yl]propoxy]-2-fluoro-phenyl]-1-[3-[[[(2S,3R,4R,5R)-2,3,4,5,6-pentahydroxyhexyl]amino]methyl]azetidin-1-yl]ethanone] |
| 100 to 130 | 100 to 1000 | O=C(CC1CN(C(=O)Cc2ccc(OCCCC3CCN(c4ncc(Cl)cn4)CC3)cc2F)C1)NCCCS(=O)(=O)O [Example 177, 3-[[2-[1-[2-[4-[3-[1-(5-chloropyrimidin-2-yl)-4-piperidyl]propoxy]-2-fluoro-phenyl]acetyl]azetidin-3-yl]acetyl]amino]propane-1-sulfonic acid] |
| 100 to 130 | ≤ 100 | O=C(Cc1ccc(OCCCC2CCN(c3ncc(Cl)cn3)CC2)cc1F)N1CC[C@H](CNC[C@H](O)[C@H](O)[C@H](O)CO)C1 [Example 168, 2-[4-[3-[1-(5-chloropyrimidin-2-yl)-4-piperidyl]propoxy]-2-fluoro-phenyl]-1-[(3R)-3-[[[(2S,3S,4R)-2,3,4,5-tetrahydroxypentyl]amino]methyl]pyrrolidin-1-yl]ethanone] |
| 100 to 130 | 100 to 1000 | O=C(Cc1ccc(OCCC2CC3(CCN(c4ncc(Cl)cn4)CC3)C2)cc1F)N1CC(CNC[C@H](O)[C@@H](O)[C@H](O)[C@H](O)CO)C1 [Example 104, 2-[4-[2-[7-(5-chloropyrimidin-2-yl)-7-azaspiro[3.5]nonan-2-yl]ethoxy]-2-fluoro-phenyl]-1-[3-[[[(2S,3R,4R,5R)-2,3,4,5,6-pentahydroxyhexyl]amino]methyl]azetidin-1-yl]ethanone] |
| 100 to 130 | ≤ 100 | O=C(Cc1ccc(OCCCC2CCN(c3ncc(Cl)cn3)CC2)cc1F)N1CC(O)(CNC[C@H](O)[C@H](O)[C@H](O)CO)C1 [Example 185, 2-[4-[3-[1-(5-chloropyrimidin-2-yl)-4-piperidyl]propoxy]-2-fluoro-phenyl]-1-[3-hydroxy-3-[[[(2S,3S,4R)-2,3,4,5-tetrahydroxypentyl]amino]methyl]azetidin-1-yl]ethanone] |
| 100 to 130 | 1000 to 10000 | O=C(Cc1ccc(OCCCC2CCN(c3ncc(Cl)cn3)CC2)nc1)N1CC(CNC[C@H](O)[C@@H](O)[C@H](O)[C@H](O)CO)C1 [Example 179, 2-[6-[3-[1-(5-chloropyrimidin-2-yl)-4-piperidyl]propoxy]-3-pyridyl]-1-[3-[[[(2S,3R,4R,5R)-2,3,4,5,6-pentahydroxyhexyl]amino]methyl]azetidin-1-yl]ethanone] |

| Compound | Emax [%] | EC50 [nM] |
| --- | --- | --- |
| O=C(Cc1ccc(OCCCCC2CC3(CCN(c4ncc(Cl)cn4)CC3)C2)cc1F)N1CC(CNC[C@H](O)[C@@H](O)[C@H](O)[C@H](O)CO)C1 [Example 106, 2-[4-[4-[7-(5-chloropyrimidin-2-yl)-7-azaspiro[3.5]nonan-2-yl]butoxy]-2-fluoro-phenyl]-1-[3-[[[(2S,3R,4R,5R)-2,3,4,5,6-pentahydroxyhexyl]amino]methyl]azetidin-1-yl]ethanone] | 100 to 130 | 100 to 1000 |

— US20230061736A1, “GPR119 AGONISTS” (Kallyope, Inc., priority 2019, published 2023)
